Assay results from patent US20240225973A1, “COSMETIC COMPOSITION FOR IMPROVING SENSITIVE SKIN” (LG HOUSEHOLD & HEALTH CARE LTD., priority 2023, published 2024).

Tested on: beta-defensin 2 (human β-defensin 2, hBD-2)
Assay: beta-defensin 2 synthesis ELISA in cortisol-treated HaCaT cells
Format: cell-based
Set-up: change of beta-defensin 2 in skin cells: dose or concentration left out as unconfirmed
Settings: for enhancement efficacy (beta-defensin 2 synthesis): single treatment at 1 ppm
Method: First, HaCaT, which is a human epidermal cell of the outermost layer among skin cells, was cultured using Dulbecco's Modified Eagle's Media (DMEM; Gibco, USA) mixed with 10% fetal bovine serum (FBS; Gibco, USA) and 1% antibiotic antimycotic (Gibco, USA) in a 24-well plate under conditions of 37° C. and 5% CO2. […] […] After 24 hours, the cells were treated with curcumin, taurine, and acetyl hexapeptide-8 at experimental concentrations, and cultured for 24 hours. At this time, curcumin, taurine, and acetyl hexapeptide-8 were treated alone, and the concentration of curcumin was fixed at 0.1 ppm and 1 ppm, and then taurine and acetyl hexapeptide-8 were treated in combination of concentrations, and cultured for 24 hours. 24 hours after treatment with each sample, ELISA was performed to quantify the amount of beta-defensin 2 (human β-defensin 2, hBD-2) protein synthesis. ELISA was performed using the HUMAN BETA DEFENSIN 2 ELISA kit (ALPHA DIAGNOSTIC, USA) and using the cell culture medium according to the kit's manual, and the final protein amount was calculated by measuring absorbance at 400 nm. […] At this time, when the amount thereof increased compared to the decrease due to cortisol, it was interpreted that the synthesis of beta-defensin 2 was increased by the sample. In addition, the synergistic effect between respective active substances that enhance beta-defensin 2 which had been reduced by cortisol was predicted through the Colby formula, and when the actual measured value was greater than the predicted value, it was determined that there was the synergistic effect.

[1] = Table 4: each substance at 1 ppm, alone or three cotreated, Cortisol (5 μM) = 100
[2] = single treatment 0.01 ppm, 24 h, HaCaT, cortisol group = 100
[3] = single treatment 0.1 ppm, 24 h, HaCaT, cortisol group = 100
[4] = single treatment 1 ppm, 24 h, HaCaT, cortisol group = 100

SMILES	change of beta-defensin 2 in skin cells (HaCaT, cultured for 24 hours)	Production amount of beta-defensin 2 (%) [1] [%]	Production amount of beta-defensin 2 (%) [2] [%]	Production amount of beta-defensin 2 (%) [3] [%]	Production amount of beta-defensin 2 (%) [4] [%]	enhancement efficacy (beta-defensin 2 synthesis)	Production amount of beta-defensin 2 (%) (single treatment 5 ppm, 24 h, HaCaT, cortisol group = 100)	Production amount of beta-defensin 2 (%) (single treatment 10 ppm, 24 h, HaCaT, cortisol group = 100)
C[C@]12CCC(=O)C=C1CC[C@@H]1[C@@H]2[C@@H](O)C[C@@]2(C)[C@H]1CC[C@]2(O)C(=O)CO [cortisol, hydrocortisone, reference compound]	significantly reduced	–	–	–	–	–	–	–
COc1cc(/C=C/C(=O)CC(=O)/C=C/c2ccc(O)c(OC)c2)ccc1O [Curcumin, curcumin]	–	106.82	96.65	97.92	106.82	confirmed	–	–
NCCS(=O)(=O)O [Taurine, 2-aminoethanesulfonic acid]	–	117.6	100.60	99.90	117.60	confirmed	87.61	83.06
